Where two headings read alike, the source gives them in different places.
Key:
[1] = test system: IL-10-induced JAK1/TYK2 signal pathway; test: IL-10-induced JAK1/TYK2 signal pathway STAT3-Luc reporter gene assay in U2OS cells; assay type: cell-based, human; settings: Homo sapiens, read-out: Half inhibition dose (IC50) on IL-10-induced JAK1/TYK2 signal pathway
Outline: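 U2OS cells co-transfected with IL-10R1-EGFP and STAT3-luciferase reporter plasmids; after 24 h, compound added (0–300 nM) for 6 h before 10 ng/mL human IL-10, then 24 h culture. Luciferase signal normalised to GFP for transfection efficiency; IC50 from inhibition rates.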

[2] = test system: IL-2-induced JAK1/JAK3 signal pathway; test: IL-2-induced proliferation of KHYG-1 cells (JAK1/JAK3 signal); assay type: cell-based, human; settings: Homo sapiens, read-out: Inhibition activity IC50 on IL-2-induced JAK1/JAK3 signal pathway
Outline: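 KHYG-1 NK lymphoma cells were cultured with IL-2 and test compound at various doses for 72 h at 37 °C and 5% CO2, and proliferation was read with alamarBlue fluorescence. Inhibition was normalized to wells without compound or cytokine (0%) and IL-2 wells without compound (100%), and C50 was derived from the dose-inhibition data.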

[3] = test system: EPO-induced JAK2 signal pathway; test: EPO-induced proliferation of UT-7 cells (JAK2 signal); assay type: cell-based, human; settings: Homo sapiens, UT7; UT-7 cell proliferation, EPO 10 ng/mL, 72 hours; read-out: Inhibition activity IC50 on EPO-induced JAK2 signal pathway
Outline: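 UT-7 cells (15000/well) stimulated with 10 ng/mL human recombinant EPO plus compound at final 0, 100, 1000 or 10000 nM, 72 h at 37° C., 5% CO2. Proliferation by alamarBlue fluorescence (Ex530/Em590); inhibition normalised to no-cytokine/no-compound (0) and EPO-only (100) wells, […] derived from dose-inhibition.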

[4] = In-vivo pharmacokinetic test in mice; settings: mouse, po; BALB/c female mice, gavage 10 mg/kg, plasma
Description: LC-MS/MS method is used to determine the drug concentration in the plasma of mice at different times after intragastric administration of the compound of the example. Relevant pharmacokinetic parameters are calculated to study the pharmacokinetic behavior of the compound of the present invention in mice, thereby evaluating the pharmacokinetic characteristics thereof.
Test animal was healthy adult BALB/c female mouse (provided by Chengdu Yaokang Biotechnology Co., Ltd.);
Compound administration and sample collection: compound was administered to BALB/c female mice by gavage (10 mg/kg). At 0.25, 0.5, 1, 2, 4, 6, 8, and 24 hours after administration, 60 μL of whole blood of the mouse fundus venous plexus were collected and centrifuged at 4000 rpm for 10 min to provide plasma.
Sample analysis: 10 μL of mouse plasma samples were respectively added with 290 μL of acetonitrile solution containing internal standard to precipitate proteins. After swirling for 10 min and centrifuging at 4000 rpm for 10 min, 200 μL of supernatant was added to 96-well plate, and analyzed by LC-MS/MS at an injection volume of 1 μL.

[5] = biological target: TYK2 JH2 domain (Homo sapiens (Human), UniProt P29597); test: TYK2 JH2 domain FRET tracer assay; assay type: binding; settings: FRET 665/615 nm; read-out: Inhibition activity IC50 on TYK2 JH2 domain
TYK2 JH2 domain, sequence (P29597 589-875): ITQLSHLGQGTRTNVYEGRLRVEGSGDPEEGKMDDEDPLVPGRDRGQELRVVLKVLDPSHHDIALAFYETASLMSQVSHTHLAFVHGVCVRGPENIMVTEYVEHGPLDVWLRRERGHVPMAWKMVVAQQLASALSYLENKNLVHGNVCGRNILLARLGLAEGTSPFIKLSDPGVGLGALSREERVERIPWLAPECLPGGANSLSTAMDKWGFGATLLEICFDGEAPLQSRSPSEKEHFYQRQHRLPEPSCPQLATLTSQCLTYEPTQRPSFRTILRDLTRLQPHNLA
Description: Compound of the present invention formulated into different concentrations (series 3 times dilutions, started from 60 μM, 11 concentrations in total) was added to 384-well plate, followed by 5 μL of enzyme (i.e., TYK2 JH2 domain), Tb antibody (Cisbio) and tracer. The mixture was incubated at 25° C. for 60 min and left at 4° C. overnight.

[6] = U2OS, U2OS cells, STAT3-Luc reporter, IL-10 10 ng/mL
[7] = KHYG-1 cell proliferation, IL-2 10 ng/mL, 72 hours
[8] = U2OS cells, STAT3-Luc reporter, IL-10 10 ng/mL

SMILES	IC50 [1, 6] [nM]	IC50 [2, 7] [nM]	IC50 [3] [nM]	AUC [4] [µM·h]	Cmax [4] [µM]	IC50 [5] [nM]	IC50 [1, 8] [nM]	IC50 ([2]; KHYG-1, 72 h) [nM]	IC50 ([1]; U2OS) [nM]
CCONC(=O)c1cnc(Nc2cc(C)nc(C)n2)cc1Nc1cccc(-c2cnc(C)cn2)c1OC [Example 213]	0.146	> 10000	> 10000	49.3	18				
CCONC(=O)c1cnc(Nc2cc(C)nc(C)n2)cc1Nc1cccc(-c2ncc(F)cn2)c1OC [Example 208, 6-((2,6-dimethylpyrimidin-4-yl)amino)-N-ethoxy-4-((3-(5-fluoropyrimidin-2-yl)-2-methoxyphenyl)amino)nicotinamide]	0.889	> 10000	> 10000	34.3	16.4				
CCONC(=O)c1cnc(Nc2cc(C)nc(C)n2)cc1Nc1ccc(Cl)cc1N(C)S(C)(=O)=O [Example 115, 4-((4-chloro-2-(N-methylmethanesulfonamido)phenyl)amino)-6-((2,6-dimethylpyrimidin-4-yl)amino)-N-ethoxy nicotinamide]	0.261	> 10000	> 10000			0.07			
CCONC(=O)c1cnc(Nc2cc(C)nc(C)n2)cc1Nc1ccc(C2CC2)cc1N(C)S(C)(=O)=O [Example 21, 4-((4-cyclopropyl-2-(N-methylmethanesulfonamido)phenyl)amino)-6-((2,6-dimethylpyrimidin-4-yl)amino)-N-ethoxy nicotinamide]	0.421	> 10000	> 10000			0.05			
CCONC(=O)c1cnc(Nc2cc(C)nc(C)n2)cc1Nc1cc(F)c(C2CC2)cc1N(C)S(C)(=O)=O [Example 98]	1.51	> 10000	> 10000			0.09			
CCONC(=O)c1cnc(Nc2ccnc(C)n2)cc1Nc1cc(F)c(C2CC2)cc1N(C)S(C)(=O)=O [Example 194, 4-((4-cyclopropyl-5-fluoro-2-(N-methylmethanesulfonamido)phenyl)amino)-N-ethoxy-6-((2-methylpyrimidin-4-yl)amino)nicotinamide]	0.6	> 10000	> 10000			0.08			
CCONC(=O)c1cnc(Nc2cc(C)nc(C)n2)cc1Nc1cc(F)cc(-c2ncn(C3CC3)n2)c1OC [Example 204]	0.534	> 10000	> 10000			0.06			
CCONC(=O)c1cnc(NC(=O)C2CC2(F)F)cc1Nc1ccc(C2CC2)cc1N(C)S(C)(=O)=O (stereo not drawn) [Example 277, 4-((4-cyclopropyl-2-(N-methylmethanesulfonamido)phenyl)amino)-6-(2,2-difluorocyclopropyl-1-carboxamido)-N-ethoxy nicotinamide]	0.466	> 10000	> 10000			0.12			
CCONC(=O)c1cnc(Nc2ccnc(C)n2)cc1Nc1ccc(C2CC2)cc1N(C)S(C)(=O)=O [Example 192, 4-((4-cyclopropyl-2-(N-methylmethanesulfonamido)phenyl)amino)-N-ethoxy-6-((2-methylpyrimidin-4-yl)amino)nicotinamide]	0.458	> 10000	> 10000			0.08			
CCONC(=O)c1cnc(Nc2cc(C)nc(C)n2)cc1Nc1ccc(OCC)cc1N(C)S(C)(=O)=O [Example 181]	0.56	> 10000	> 10000			0.08			
CCONC(=O)c1cnc(Nc2cc(C)nc(C)n2)cc1Nc1cc(F)c(C(C)C)cc1N(C)S(C)(=O)=O [Example 229, 6-((2,6-dimethylpyrimidin-4-yl)amino)-N-ethoxy-4-((5-fluoro-4-isopropyl-2-(N-methylmethanesulfonamido)phenyl)amino)nicotinamide]	0.424	> 10000	> 10000			0.05			
CCONC(=O)c1cnc(Nc2cc(C)nc(C)n2)cc1Nc1ccc(C(C)C)cc1N(C)S(C)(=O)=O [Example 201, 6-((2,6-dimethylpyrimidin-4-yl)amino)-N-ethoxy-4-((4-isopropyl-2-(N-methylmethanesulfonamido)phenyl)amino)nicotinamide]		> 10000	> 10000			0.06	0.541		
CCONC(=O)c1cnc(Nc2ccnc(OC)n2)cc1Nc1cc(F)c(Cl)cc1N(C)S(C)(=O)=O [Example 200, 4-((4-chloro-5-fluoro-2-(N-methylmethanesulfonamido)phenyl)amino)-N-ethoxy-6-((2-methoxypyrimidin-4-yl)amino)nicotinamide]	0.42	> 10000	> 10000			0.06			
CCONC(=O)c1cnc(Nc2cc(C)nc(C)n2)cc1Nc1cc(F)c(CC)cc1N(C)S(C)(=O)=O [Example 193, 6-((2,6-dimethylpyrimidin-4-yl)amino)-N-ethoxy-4-((4-ethyl-5-fluoro-2-(N-methylmethanesulfonamido)phenyl)amino)nicotinamide]	0.647	> 10000	> 10000			0.06			
CCONC(=O)c1cnc(Nc2cc(C)nc(C)n2)cc1Nc1ccc(C)nc1N(C)S(C)(=O)=O [Example 186]	0.276	> 10000	> 10000			0.07			
CCONC(=O)c1cnc(Nc2cc(C)nc(C)n2)cc1Nc1cc(F)c(Cl)cc1N(C)S(C)(=O)=O [Example 198, 4-((4-chloro-5-fluoro-2-(N-methylmethanesulfonamido)phenyl)amino)-6-((2,6-dimethylpyrimidin-4-yl)amino)-N-ethoxy nicotinamide]	0.65	> 10000	> 10000			0.08			
CCONC(=O)c1cnc(Nc2cccc(F)n2)cc1Nc1ccccc1NS(=O)(=O)C1CC1 [Example 116, 4-((2-(cyclopropylsulfonamido)phenyl)amino)-N-ethoxy-6-((6-fluoropyridin-2-yl)amino)nicotinamide]			> 10000				0.471	> 10000	
[2H]C([2H])([2H])Oc1c(Nc2cc(Nc3cc(C)nc(C)n3)ncc2C(=O)NOCC)cccc1-c1ncccn1 [Example 279, 6-((2,6-dimethylpyrimidin-4-yl)amino)-N-ethoxy-4-((2-(methoxy-d3)-3-(pyrimidin-2-yl)phenyl)amino)nicotinamide]		> 10000	> 10000						0.529
CONC(=O)c1cnc(Nc2cccc(F)n2)cc1Nc1cccc(F)c1N(C)S(C)(=O)=O [Example 38, 4-((3-fluoro-2-(N-methylmethanesulfonamido)phenyl)amino)-6-((6-fluoropyridin-2-yl)amino)-N-methoxy nicotinamide]	0.506	> 10000	> 10000						
C#Cc1ccc(Nc2cc(Nc3ccc(F)cn3)ncc2C(=O)NOCC)c(N(C)S(C)(=O)=O)c1 [Example 144, N-ethoxy-4-((4-ethynyl-2-(N-methylmethanesulfonamido)phenyl)amino)-6-(5-fluoropyridin-2-ylamino)nicotinamide]	0.969	> 10000	> 10000						
CONC(=O)c1cnc(NC(=O)C2CC2)cc1Nc1cccc(-c2ccn(C)n2)c1OC [Example 29, 6-(cyclopropylcarboxamido)-N-methoxy-4-((2-methoxy-3-(1-methyl-1H-pyrazol-3-yl)phenyl)amino)nicotinamide]	2.33	> 10000	> 10000						
CCONC(=O)c1cnc(Nc2ccc(C)nn2)cc1Nc1ccc(C2CC2)cc1N(C)S(C)(=O)=O [Example 159, 4-((4-cyclopropyl-2-(N-methylmethanesulfonamido)phenyl)amino)-N-ethoxy-6-((6-methylpyridazin-3-yl)amino)nicotinamide]	0.907	> 10000	> 10000						

Reference: patent US20240101548A1, “HYDROXAMATE COMPOUND, PREPARATION METHOD THEREFOR AND APPLICATION THEREOF” (SHENZHEN CHIPSCREEN BIOSCIENCES CO., LTD., priority 2020, published 2024)
